The results in this text go back to patent US20240269139A1, “COMPOUNDS FOR TARGETED PROTEIN DEGRADATION OF KINASES” (DANA-FARBER CANCER INSTITUTE, INC., priority 2020, published 2024).

Common to all, as to type: cell-based
Assay [1] has as its target protein kinases (human kinome) (Homo sapiens, UniProt O00764). The note with it: protein PDXK (O00764-1); experiment wp117; down.
In assay [2] the target is protein kinases (human kinome) (Homo sapiens, UniProt O75460). The note with it: experiment wp076.
Sequence of protein kinases (human kinome) (Homo sapiens, UniProt O75460) (O75460 19-977): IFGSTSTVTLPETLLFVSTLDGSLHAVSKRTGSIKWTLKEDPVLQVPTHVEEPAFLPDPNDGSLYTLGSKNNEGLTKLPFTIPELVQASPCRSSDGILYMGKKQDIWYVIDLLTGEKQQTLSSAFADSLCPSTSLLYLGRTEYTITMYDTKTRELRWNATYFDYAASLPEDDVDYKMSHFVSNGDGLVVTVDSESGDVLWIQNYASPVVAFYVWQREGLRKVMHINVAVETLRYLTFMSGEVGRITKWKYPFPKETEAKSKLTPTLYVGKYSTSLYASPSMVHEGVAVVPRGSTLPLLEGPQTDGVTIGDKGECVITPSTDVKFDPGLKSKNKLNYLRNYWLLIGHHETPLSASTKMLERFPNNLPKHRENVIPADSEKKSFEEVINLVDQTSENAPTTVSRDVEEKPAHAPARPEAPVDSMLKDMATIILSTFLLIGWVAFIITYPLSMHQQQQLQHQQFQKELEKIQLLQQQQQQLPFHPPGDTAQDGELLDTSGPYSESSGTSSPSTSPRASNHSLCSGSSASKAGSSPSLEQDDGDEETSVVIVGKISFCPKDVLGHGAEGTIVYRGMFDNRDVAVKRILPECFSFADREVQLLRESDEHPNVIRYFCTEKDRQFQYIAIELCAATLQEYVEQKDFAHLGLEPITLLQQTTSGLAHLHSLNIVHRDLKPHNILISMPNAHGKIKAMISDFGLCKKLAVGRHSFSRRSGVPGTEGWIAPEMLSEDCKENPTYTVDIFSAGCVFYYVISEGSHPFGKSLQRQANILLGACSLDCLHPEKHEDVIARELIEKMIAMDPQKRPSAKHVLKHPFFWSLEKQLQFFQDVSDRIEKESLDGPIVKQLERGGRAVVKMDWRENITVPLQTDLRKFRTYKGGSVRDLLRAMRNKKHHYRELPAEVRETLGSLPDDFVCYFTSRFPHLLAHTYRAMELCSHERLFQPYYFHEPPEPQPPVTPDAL
For assay [3], the target named is protein kinases (human kinome) (Homo sapiens, UniProt P51956). The following applies: experiment wp146.
Sequence of protein kinases (human kinome) (Homo sapiens, UniProt P51956) (P51956 whole entry): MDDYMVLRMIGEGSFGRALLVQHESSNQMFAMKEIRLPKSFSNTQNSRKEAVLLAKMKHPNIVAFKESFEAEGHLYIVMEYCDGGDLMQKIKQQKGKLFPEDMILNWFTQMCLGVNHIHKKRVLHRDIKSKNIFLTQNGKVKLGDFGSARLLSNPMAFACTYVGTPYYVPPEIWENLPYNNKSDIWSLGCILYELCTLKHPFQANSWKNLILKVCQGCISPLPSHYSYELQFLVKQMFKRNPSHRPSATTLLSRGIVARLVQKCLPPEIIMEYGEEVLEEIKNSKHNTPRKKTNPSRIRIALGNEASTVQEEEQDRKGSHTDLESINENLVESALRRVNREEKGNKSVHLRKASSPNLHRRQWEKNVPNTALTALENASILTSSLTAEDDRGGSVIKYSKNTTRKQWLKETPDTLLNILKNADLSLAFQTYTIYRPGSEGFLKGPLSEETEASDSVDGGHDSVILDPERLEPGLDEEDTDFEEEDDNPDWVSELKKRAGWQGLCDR
Assay [4] concerns the target protein kinases (human kinome) (Homo sapiens, UniProt Q9UHD2). The following applies: experiment wp146.
Assay [5] addresses protein kinases (human kinome) (Homo sapiens, UniProt Q6P5Z2).
The target in assay [6] is protein kinases (human kinome) (Homo sapiens, UniProt Q9BZX2). The following applies: protein UCK2 (Q9BZX2-1); experiment wp160, 8 hr; down.
Sequence of protein kinases (human kinome) (Homo sapiens, UniProt Q9BZX2) (Q9BZX2 whole entry): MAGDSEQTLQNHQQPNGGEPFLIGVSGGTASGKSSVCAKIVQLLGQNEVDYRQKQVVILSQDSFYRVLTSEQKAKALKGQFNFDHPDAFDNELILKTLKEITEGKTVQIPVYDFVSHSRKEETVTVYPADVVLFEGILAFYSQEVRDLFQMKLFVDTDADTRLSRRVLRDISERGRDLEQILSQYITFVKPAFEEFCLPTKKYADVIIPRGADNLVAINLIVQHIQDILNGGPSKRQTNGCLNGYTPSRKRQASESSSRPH
The target of assay [7] is protein kinases (human kinome) (Homo sapiens, UniProt Q9H999). The following applies: PANK3 (Q9H999); experiment wp152.
Assay [8] has as its target T1, protein kinases (human kinome) (Homo sapiens, UniProt P53778).
T1 sequence (P53778 1-367): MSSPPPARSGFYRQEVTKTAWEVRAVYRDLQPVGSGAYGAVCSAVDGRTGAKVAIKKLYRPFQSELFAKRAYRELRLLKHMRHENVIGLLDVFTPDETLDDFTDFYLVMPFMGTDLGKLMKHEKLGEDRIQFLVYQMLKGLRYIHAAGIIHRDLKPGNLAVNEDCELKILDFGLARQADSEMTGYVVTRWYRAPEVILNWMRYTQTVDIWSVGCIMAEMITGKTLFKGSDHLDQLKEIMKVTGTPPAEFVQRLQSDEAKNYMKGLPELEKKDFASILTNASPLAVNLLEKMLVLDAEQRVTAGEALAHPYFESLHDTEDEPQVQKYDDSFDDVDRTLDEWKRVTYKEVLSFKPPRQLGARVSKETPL
The note with it: for logFC MAPK12 (P53778): direction of change down; for logFC: MAPK12 (P53778).

In assay [9] the target is protein kinases (human kinome) (Homo sapiens, UniProt Q16832).
Sequence of protein kinases (human kinome) (Homo sapiens, UniProt Q16832) (Q16832 22-855): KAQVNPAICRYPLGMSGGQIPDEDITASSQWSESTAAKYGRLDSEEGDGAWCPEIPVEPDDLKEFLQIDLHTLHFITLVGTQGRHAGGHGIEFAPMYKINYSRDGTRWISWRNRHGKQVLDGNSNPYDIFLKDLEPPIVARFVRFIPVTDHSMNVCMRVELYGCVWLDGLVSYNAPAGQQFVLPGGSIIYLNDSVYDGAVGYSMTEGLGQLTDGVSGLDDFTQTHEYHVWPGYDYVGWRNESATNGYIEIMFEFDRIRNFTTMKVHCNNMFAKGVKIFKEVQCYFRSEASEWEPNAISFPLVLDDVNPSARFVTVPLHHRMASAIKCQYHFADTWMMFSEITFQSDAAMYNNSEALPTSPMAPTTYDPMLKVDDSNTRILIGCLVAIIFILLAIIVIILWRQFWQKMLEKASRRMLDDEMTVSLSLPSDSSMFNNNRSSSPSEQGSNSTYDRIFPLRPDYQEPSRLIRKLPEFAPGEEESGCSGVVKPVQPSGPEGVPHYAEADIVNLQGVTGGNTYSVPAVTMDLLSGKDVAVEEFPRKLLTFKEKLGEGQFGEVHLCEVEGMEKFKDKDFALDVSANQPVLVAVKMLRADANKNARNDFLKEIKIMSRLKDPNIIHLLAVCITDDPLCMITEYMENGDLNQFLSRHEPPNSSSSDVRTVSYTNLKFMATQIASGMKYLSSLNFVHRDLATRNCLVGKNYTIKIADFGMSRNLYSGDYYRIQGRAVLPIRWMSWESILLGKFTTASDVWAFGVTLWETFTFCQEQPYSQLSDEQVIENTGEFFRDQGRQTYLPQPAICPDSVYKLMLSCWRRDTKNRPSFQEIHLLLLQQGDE
The target in assay [10] is protein kinases (human kinome) (Homo sapiens, UniProt Q15759). The following applies: for logFC MAPK11 (Q15759): direction of change down; for logFC: MAPK11 (Q15759).
Sequence of protein kinases (human kinome) (Homo sapiens, UniProt Q15759) (Q15759 whole entry): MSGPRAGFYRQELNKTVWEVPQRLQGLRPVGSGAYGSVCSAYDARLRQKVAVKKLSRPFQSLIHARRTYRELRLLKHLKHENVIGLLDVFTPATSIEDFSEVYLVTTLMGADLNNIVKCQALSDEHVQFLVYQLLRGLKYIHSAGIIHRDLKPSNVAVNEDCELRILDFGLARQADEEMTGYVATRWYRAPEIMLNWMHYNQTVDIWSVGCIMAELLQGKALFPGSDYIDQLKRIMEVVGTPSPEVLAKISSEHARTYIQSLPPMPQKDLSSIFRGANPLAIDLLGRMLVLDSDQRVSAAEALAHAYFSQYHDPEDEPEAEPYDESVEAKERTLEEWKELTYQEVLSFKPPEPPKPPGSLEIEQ
Assay [11] has as its target T2, protein kinases (human kinome) (Homo sapiens, UniProt Q9UQ88).
T2 sequence (Q9UQ88 1-783): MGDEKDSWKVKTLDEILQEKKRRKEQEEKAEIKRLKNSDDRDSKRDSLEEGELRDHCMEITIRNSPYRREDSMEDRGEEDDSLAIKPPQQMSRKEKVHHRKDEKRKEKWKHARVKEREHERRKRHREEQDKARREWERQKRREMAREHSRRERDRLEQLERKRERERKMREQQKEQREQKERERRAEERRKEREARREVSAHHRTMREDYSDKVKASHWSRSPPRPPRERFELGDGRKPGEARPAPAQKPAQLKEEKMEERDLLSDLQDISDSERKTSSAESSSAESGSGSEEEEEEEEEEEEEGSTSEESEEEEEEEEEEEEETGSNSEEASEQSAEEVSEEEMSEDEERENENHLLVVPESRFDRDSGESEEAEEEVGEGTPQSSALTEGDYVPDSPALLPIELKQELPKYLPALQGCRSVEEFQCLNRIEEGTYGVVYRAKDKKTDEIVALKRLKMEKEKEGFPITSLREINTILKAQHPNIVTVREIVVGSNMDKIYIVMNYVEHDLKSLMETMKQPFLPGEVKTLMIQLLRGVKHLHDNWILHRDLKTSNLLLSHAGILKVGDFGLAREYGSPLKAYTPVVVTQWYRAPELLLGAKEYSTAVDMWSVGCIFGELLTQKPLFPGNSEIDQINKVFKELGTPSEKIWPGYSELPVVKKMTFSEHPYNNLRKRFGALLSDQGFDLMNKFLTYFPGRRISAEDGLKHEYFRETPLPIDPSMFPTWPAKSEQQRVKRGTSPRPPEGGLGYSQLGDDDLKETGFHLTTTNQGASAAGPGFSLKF
The following applies: experiment wp105.

Assay [12] has as its target protein kinases (human kinome) (Homo sapiens, UniProt P52429). The following applies: protein DGKE (P52429); experiment wp056; down.
Assay [13] has as its target protein kinases (human kinome) (Homo sapiens, UniProt Q96QT4). The following applies: experiment wp107.
Assay [14] concerns the target protein kinases (human kinome) (Homo sapiens, UniProt Q86UX6).
The mark [15] stands for this setting: Experiment wp114, direction of change down.

Read-outs that look alike come from different tables or passages of the source.

Sequence of protein kinases (human kinome) (Homo sapiens, UniProt Q86UX6) (Q86UX6 whole entry): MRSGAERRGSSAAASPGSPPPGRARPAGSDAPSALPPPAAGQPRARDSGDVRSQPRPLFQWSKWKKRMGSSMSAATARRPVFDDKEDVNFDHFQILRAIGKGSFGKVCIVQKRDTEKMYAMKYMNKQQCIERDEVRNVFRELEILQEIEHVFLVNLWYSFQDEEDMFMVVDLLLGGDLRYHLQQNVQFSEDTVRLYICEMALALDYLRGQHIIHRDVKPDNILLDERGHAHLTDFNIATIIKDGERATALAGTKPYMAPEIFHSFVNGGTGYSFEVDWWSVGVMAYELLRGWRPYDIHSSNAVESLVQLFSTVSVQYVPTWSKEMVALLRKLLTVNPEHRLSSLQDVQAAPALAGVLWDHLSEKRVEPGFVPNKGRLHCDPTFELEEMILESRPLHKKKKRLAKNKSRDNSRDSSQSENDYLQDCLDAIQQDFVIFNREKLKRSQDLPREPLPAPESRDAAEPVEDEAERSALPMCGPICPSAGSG
Sequence of protein kinases (human kinome) (Homo sapiens, UniProt Q9UHD2) (Q9UHD2 whole entry): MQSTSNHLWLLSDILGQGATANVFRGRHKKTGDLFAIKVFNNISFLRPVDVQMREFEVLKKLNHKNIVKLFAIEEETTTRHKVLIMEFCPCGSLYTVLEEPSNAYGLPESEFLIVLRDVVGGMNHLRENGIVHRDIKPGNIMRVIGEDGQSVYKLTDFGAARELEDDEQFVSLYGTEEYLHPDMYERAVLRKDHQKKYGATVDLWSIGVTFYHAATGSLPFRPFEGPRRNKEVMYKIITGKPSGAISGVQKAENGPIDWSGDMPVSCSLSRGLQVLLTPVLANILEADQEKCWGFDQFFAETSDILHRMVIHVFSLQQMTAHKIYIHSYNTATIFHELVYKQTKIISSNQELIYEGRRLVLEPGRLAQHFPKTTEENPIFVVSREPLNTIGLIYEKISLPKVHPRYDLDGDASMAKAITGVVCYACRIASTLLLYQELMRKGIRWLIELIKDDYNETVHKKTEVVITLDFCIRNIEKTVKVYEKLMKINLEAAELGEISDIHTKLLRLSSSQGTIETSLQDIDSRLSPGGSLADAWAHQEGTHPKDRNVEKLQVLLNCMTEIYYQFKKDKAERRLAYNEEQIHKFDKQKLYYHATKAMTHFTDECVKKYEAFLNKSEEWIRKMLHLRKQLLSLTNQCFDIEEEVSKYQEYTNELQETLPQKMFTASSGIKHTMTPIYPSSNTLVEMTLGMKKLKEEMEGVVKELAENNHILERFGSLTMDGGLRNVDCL
Sequence of protein kinases (human kinome) (Homo sapiens, UniProt Q6P5Z2) (Q6P5Z2 whole entry): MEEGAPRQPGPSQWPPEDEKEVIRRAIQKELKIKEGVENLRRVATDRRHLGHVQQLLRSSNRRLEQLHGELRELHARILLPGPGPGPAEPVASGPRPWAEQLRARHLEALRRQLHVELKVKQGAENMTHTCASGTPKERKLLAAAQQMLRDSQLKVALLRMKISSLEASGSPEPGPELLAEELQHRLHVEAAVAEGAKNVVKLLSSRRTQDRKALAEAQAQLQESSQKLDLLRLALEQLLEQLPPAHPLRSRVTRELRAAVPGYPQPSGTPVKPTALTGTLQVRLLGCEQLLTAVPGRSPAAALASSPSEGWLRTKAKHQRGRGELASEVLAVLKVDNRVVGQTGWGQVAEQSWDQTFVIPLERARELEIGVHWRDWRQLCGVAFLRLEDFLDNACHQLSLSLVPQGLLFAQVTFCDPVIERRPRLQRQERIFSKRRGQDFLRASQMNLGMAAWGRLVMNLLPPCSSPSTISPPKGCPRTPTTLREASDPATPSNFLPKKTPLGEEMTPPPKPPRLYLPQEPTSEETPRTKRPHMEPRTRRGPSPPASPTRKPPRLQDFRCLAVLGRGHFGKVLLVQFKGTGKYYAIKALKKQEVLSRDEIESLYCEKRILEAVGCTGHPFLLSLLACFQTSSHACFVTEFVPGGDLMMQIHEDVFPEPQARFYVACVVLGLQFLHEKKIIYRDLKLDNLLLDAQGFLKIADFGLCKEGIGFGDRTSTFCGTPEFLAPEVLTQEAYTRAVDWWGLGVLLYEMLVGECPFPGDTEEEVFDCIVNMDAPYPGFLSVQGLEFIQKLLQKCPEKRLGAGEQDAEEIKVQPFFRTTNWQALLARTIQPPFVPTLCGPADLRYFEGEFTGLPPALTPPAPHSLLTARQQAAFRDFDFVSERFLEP

With `CS(=O)(=O)Nc1cccc(-c2csc3cnc(Nc4ccc(N5CCN(CCCCCOc6cccc7c6C(=O)N(C6CCC(=O)NC6=O)C7=O)CC5)cc4)nc23)c1` (stereo not shown) [DB0614, N-(3-(2-((4-(4-(5-((2-(2,6-Dioxopiperidin-3-yl)-1,3-dioxoisoindolin-4-yl)oxy)pentyl)piperazin-1-yl)phenyl)amino)thieno[3,2-d]pyrimidin-7-yl)phenyl)methanesulfonamide], the “logFC PDXK” value in assay [1] is −0.3964.

As to `O=C1CCC(N2C(=O)c3cccc(NCCCCCCCCN4CCC(NC(=O)c5[nH]ncc5NC(=O)c5c(Cl)cccc5Cl)CC4)c3C2=O)C(=O)N1` (stereo not shown) [MFH.5.126.1], the “logFC of ERN1 (O75460)” value in assay [2] is listed as −0.4882. The “logFC ERN1” value in assay [2] (protein ERN1 (O75460), down) is on record as −0.4882.

`Cc1cc(Nc2ncc(Br)c(Nc3cccc(F)c3C(N)=O)n2)ccc1S(=O)(=O)NCCOCCOCCOCCOCCNc1cccc2c1C(=O)N(C1CCC(=O)NC1=O)C2=O` (stereo not shown) [TMX.02.174]: the “logFC NEK3 (P51956)” value in assay [3] (direction of change down) was −0.8497. In [3] (protein NEK3 (P51956), down), the “logFC NEK3” value is listed as −0.8497. Moreover, the “logFC TBK1 (Q9UHD2)” value in assay [4] (direction of change down) is given as −0.5951. For the same compound, in [4] (protein TBK1 (Q9UHD2), down), the “logFC TBK1” value is −0.5951.

On to `Cc1ncsc1-c1ccc([C@H](C)NC(=O)[C@@H]2C[C@@H](O)CN2C(=O)[C@@H](NC(=O)CCOCCOCCN2CCN(c3ccc(Nc4ncc(Cl)c(Nc5ccccc5S(=O)(=O)C(C)C)n4)cc3)CC2)C(C)(C)C)cc1` [FMF.06.098.1], for which the “logFC PKN3 (Q6P5Z2)” value in [5] (setting [15]) is −0.451. For the same compound, in [5] (protein PKN3 (Q6P5Z2), experiment wp114, down), the “logFC PKN3” value was −0.451.

As to `Cc1ccc(NC(=O)c2cccc(C(F)(F)F)c2)cc1N1Cc2cnc(Nc3ccc(N4CCN(Cc5cn(CCCCCOc6cccc7c6C(=O)N(C6CCC(=O)NC6=O)C7=O)nn5)CC4)nc3)nc2N(C)C1=O` (stereo not shown) [DB0646, N-(3-(7-((6-(4-((1-(5-((2-(2,6-Dioxopiperidin-3-yl)-1,3-dioxoisoindolin-4-yl)oxy)pentyl)-1H-1,2,3-triazol-4-yl)methyl)piperazin-1-v)pyridin-3-yl)amino)-1-methyl-2-oxo-1,4-dihydropyrimido[4,5-d]pyrimidin-3(2H)-yl)-4-methylphenyl)-3-(trifluoromethyl)benzamide], the “logFC UCK2” value in assay [6] is on record as −0.3246. Further, the logFC was −0.3534 in [7]; −0.5939 in assay [8] (experiment wp105); −1.457 in assay [8] (experiment wp172); −0.3998 in assay [10] (experiment wp105); −0.6209 in assay [10] (experiment wp114); −0.868 in assay [11] (CDK11A (Q9UQ88-1)). Moreover, the “logFC MAPK12 (P53778)” value is recorded as −0.5939 in assay [8] (Experiment wp105) and −1.457 in assay [8] (experiment wp172). Besides, the “logFC DDR2 (Q16832)” value in assay [9] (Experiment wp105, direction of change down) is listed as −0.4741. Also, in [9] (protein DDR2 (Q16832), experiment wp105, down), the “logFC DDR2” value is −0.4741. The “logFC MAPK11 (Q15759)” value in assay [10] (Experiment wp105) is reported as −0.3998; in assay [10] (Experiment wp114) it was −0.6209. Also, the “logFC of CDK11A (Q9UQ88-1)” value in assay [11] is recorded as −0.868.

As for `C=CCn1c(=O)c2cnc(Nc3ccc(N4CCN(CCCNc5cccc6c5C(=O)N(C5CCC(=O)NC5=O)C6=O)CC4)cc3)nc2n1-c1cccc(C(C)(C)O)n1` (stereo not shown) [ZNL.02.096], in assay [12], the “logFC DGKE” value was −0.3512.

`CC(C)S(=O)(=O)c1ccccc1Nc1nc(Nc2ccc(N3CCN(CCOCCNC(=O)CNc4cccc5c4C(=O)N(C4CCC(=O)NC4=O)C5=O)CC3)cc2)ncc1Cl` (stereo not shown) [SK.3.91]: the “logFC TRPM7 (Q96QT4)” value in assay [13] (direction of change down) is listed as −0.3241. The “logFC TRPM7” value in assay [13] (protein TRPM7 (Q96QT4), down) was −0.3241. Besides, the “logFC STK32C (Q86UX6)” value in [14] (setting [15]) is −0.6189. Moreover, the “logFC STK32C” value in [14] (protein STK32C (Q86UX6), experiment wp114, down) is reported as −0.6189.
